SMILES strings stand for the structures.

Data on four molecules can be found in PMC2847595 (Nuclear medicine and biology, 2010).

One data set concerns CYP3A4. Particulars: cited from earlier work.
Another data set relates to cDNA-expressed CYP3A4. To be noted: in vitro; cited from earlier work.
The next data set has as its system P-glycoprotein (P-gp). Particulars: cited from earlier work.
Data set [1] is described as follows: Ex vivo radio-HPLC analysis of mouse plasma after radiotracer injection. The format is in vivo. Particulars: for plasma concentration: 30 min after radiotracer injection; for increase of plasma concentration by ketoconazole pretreatment: both wild-type and knockout mice, ketoconazole 50 mg/kg i.p.
Data set [2] is described as follows: Ex vivo radio-HPLC analysis of mouse whole brain after radiotracer injection. Particulars: for increase of brain concentration by ketoconazole pretreatment: ketoconazole 50 mg/kg i.p.; for brain concentration: 30 min after radiotracer injection. It counts as in vivo.
Setting [3] is: P-gp knockout mice, baseline (no ketoconazole).
[4] abbreviates: P-gp knockout mice, ketoconazole 50 mg/kg i.p. pretreatment.
Setting [5] is: wild-type mice, baseline (no ketoconazole).
Setting [6] is: wild-type mice, ketoconazole 50 mg/kg i.p. pretreatment.
Where [7] appears, read: P-gp knockout mice, after [11C]loperamide.
Setting [8] is: wild-type mice, after [11C]loperamide.

Regarding `CC(=O)N1CCN(c2ccc(OCC3COC(Cn4ccnc4)(c4ccc(Cl)cc4Cl)O3)cc2)CC1` (stereo not drawn) [ketoconazole], the inhibitory constant (Ki) (as a rule, a measure of affinity in units of concentration, obtained from inhibition or displacement) in the data set on CYP3A4 was […]. Moreover, the “inhibition of the N-demethylation of loperamide” value in the data set on cDNA-expressed CYP3A4 is 90%.
In the case of `CN(C)C(=O)C(CCN1CCC(O)(c2ccc(Cl)cc2)CC1)(c1ccccc1)c1ccccc1` [loperamide, reference compound], in the data set on P-glycoprotein (P-gp), the P-gp substrate result is recorded as “avid substrate for P-gp”.
Consider `CN([11CH3])C(=O)C(CCN1CCC(O)(c2ccc(Cl)cc2)CC1)(c1ccccc1)c1ccccc1` [[^11C]loperamide] [[N-methyl-^11C]loperamide], for which the plasma concentration in data set [1] (setting [3]) amounted to 7.37 ± 4.55 % SUV; in data set [1] (setting [4]), 17.1± 9.0 % SUV; in data set [1] (setting [5]), 10.3 ± 2.1 % SUV; in data set [1] (setting [6]), 17.6 ± 5.9 % SUV. In data set [1], the “increase of plasma concentration by ketoconazole pretreatment” value is given as “about two-fold”. In data set [2] (setting [7]), the “increase of brain concentration by ketoconazole pretreatment” value is “about two-fold”. The brain concentration in data set [2] (P-gp knockout mice, baseline) worked out at 20.4 ± 3.2 % SUV; in data set [2] (setting [4]) it was 43.9 ± 14.0 % SUV; in data set [2] (wild-type mice, baseline), 2.86 ± 0.97 % SUV; in data set [2] (setting [6]), 2.9± 0.7 % SUV. For the same molecule, the “effect of ketoconazole pretreatment on brain concentration” value in data set [2] (setting [8]) was “no effect”.
Turning to `CN([11CH3])C(=O)C(CCN1CCC(O)(c2ccc(Cl)cc2)CC1)(c1ccccc1)c1ccccc1` [[^11C]dLop] [[N-methyl-^11C]N-desmethyl-loperamide], the plasma concentration in data set [1] (setting [3]) came to 2.26 ± 0.54 % SUV; in data set [1] (setting [4]), 3.4 ± 0.4 % SUV; in data set [1] (setting [5]), 1.36 ± 0.18 % SUV; in data set [1] (setting [6]) it was 3.3 ± 0.4 % SUV. Moreover, the “increase of plasma concentration by ketoconazole pretreatment” value in data set [1] is “about two-fold”. The “increase of brain concentration by ketoconazole pretreatment” value in data set [2] (setting [7]) is “two-fold”. Moreover, the brain concentration in data set [2] (P-gp knockout mice, baseline) was found to be 37.1 ± 7.3 % SUV; in data set [2] (setting [4]), 37.9 ± 6.7 % SUV; in data set [2] (wild-type mice, baseline), 1.93 ± 0.52 % SUV; in data set [2] (setting [6]) it was 2.2 ± 0.5 % SUV. Also, the “effect of ketoconazole pretreatment on brain concentration” value in data set [2] (either knockout or wild-type mice, after [11C]dLop) was “little effect”; in data set [2] (setting [8]), “did not increase”. The P-gp substrate entry with P-glycoprotein (P-gp) is reported as “avid substrate for P-gp”.
